Results reported in PMC10969810, “Green Extraction Strategy Using Bio-Based Aqueous Biphasic Systems for Polyphenol Valorization from Grape By-Product” (Foods, 2024).
Converted amounts (≈) assume the structure as drawn. “And” between values parts separate entries of the source, which are not always exact repeats. Identical values can stand only once. Like-named read-outs stand apart in the source and are kept apart here.

Legend:
[1] = Partition of polyphenols in cholinium salt/IL + PPG400 + water aqueous biphasic systems; format: physicochemical; settings: for increase in RE by increasing the TLL: TLL 56.88 to 101.43, polyphenol content 2.5 g per L of ABS, pH~6, 25 °C
Description: Considering previously established phase diagrams of ABSs, ternary mixtures within the biphasic region were prepared, containing 20 wt% salt/IL + 50 wt% PPG400 + 30 wt% of H2O +10 μL of polyphenol solution. The polyphenol solutions were prepared in 80 vol% ethanol, with concentrations of circa 2500 mg L^−1 for each compound. […] The selected compositions of ABSs and corresponding TLLs are given in the Supplementary Materials.
Each ABS was prepared in 1.5 mL microcentrifuge tubes by adding the appropriate amount of constituents to achieve a final weight of 1 g. All systems were vigorously agitated (Reax Top, Heidolph, Schwabach, Germany) and left for 2 h at 25 °C in a thermo-shaker incubator (ALEMADR-MSC, Colo Lab Experts, Novo Mesto, Slovenia). Following 5 min of centrifugation at 5000× g rpm (LLG-uniCFUGE 5, Meckenheim, Germany), the phases were carefully separated, and their weights and volumes were measured. After appropriate dilution and filtration using syringe filters (0.45 μm), the contents of polyphenols in the phases were quantified by high-performance liquid chromatography (HPLC), as described in Section 2.5.
The logarithmic distribution coefficients (logD) of the polyphenols were calculated as the ratio of the equilibrium concentration of each polyphenol in the PPG400-rich and IL/salt-rich phases, as follows:(1) logD=log [Polyphenol]PPG400-phase/[Polyphenol]IL/salt-phase.
The selectivities (S) with respect to gallic acid were calculated according to the following equation:(4) SGA/Polyphenol=DGA/DPolyphenol where the subscript “Polyphenol” stands for resveratrol or quercetin.
The quantification of polyphenols was carried out using HPLC (Knauer, Berlin, Germany), which includes a DAD detector and an Ascentis C18 (SUPELCO), Darmstadt, Germany, column with a particle size of 5 µm and dimensions 250 mm × 4.6 mm. Chromatographic separation of the target polyphenols occurred at a constant flow rate of 1 mL min^−1, the injection volume for all samples was 20 μL, and the temperature of the column was fixed at 45 °C, with 10% acetonitrile (v/v) as mobile phase A and pure acetonitrile as mobile phase B. For partition studies, isocratic conditions were used for the determination of each compound (A:B = 60:40). Quantification in a complex sample after extraction from the real sample was achieved using a gradient mode, varying the mobile phase from 100% A to 100% B for 30 min.

[2] = Recovery of polyphenols from grape stem extract with [Ch][DHP]/PPG400 ABS; format: physicochemical; settings: 40 wt% PPG400 + 25 wt% [Ch][DHP], 25 °C, pH ~6, TLL ~101, ~5 mg extract per g ABS
Description: Grapes collected from Quinta das Carvalhas, Pinhao (Regiao Demarcada do Douro, Portugal), were first separated into stems, seeds, and skins. All samples were freeze-dried, ground into powder, and stored in a desiccator. Two grams of the grape stem powder was mixed with 100 mL of a water:ethanol mixture (1:1, v:v), followed by stirring for 2 h and sonication for 5 min. The sample was centrifuged at 10,000× g rpm for 15 min, and the pellet was re-extracted. The supernatant was collected, and the solvent was evaporated under vacuum using a rotary evaporator at 40 °C. […]
The quantification of polyphenols was carried out using HPLC (Knauer, Berlin, Germany), which includes a DAD detector and an Ascentis C18 (SUPELCO), Darmstadt, Germany, column with a particle size of 5 µm and dimensions 250 mm × 4.6 mm. […] Quantification in a complex sample after extraction from the real sample was achieved using a gradient mode, varying the mobile phase from 100% A to 100% B for 30 min.
Guided by the results from the optimization studies, polyphenols were extracted from grape stem extract with specific conditions in mind based on previously determined extraction parameters. […] The RE for GA towards the [Ch][DHP] phase was 78.64%, and quercetin was not detected in the grape stem extract. […]

[3] = Solubility determination (UV spectroscopy of saturated solutions); format: physicochemical; settings: thermodynamic from solid
Description: Quantification was carried out using calibration curves (R^2 > 0.99 in all cases) for each analyzed compound within the concentration range of 2.5 to 50 mg L^-1.

[4] = cited from earlier work
[5] = set-up: method as in doi:10.2478/s11696-013-0417-6, doi:10.1016/0016-7037(88)90089-0; settings: cited from earlier work
[6] = set-up: method as in doi:10.1016/j.afres.2023.100381; settings: ABSs of [Ch]Cl and different surfactants, rice husk hydrolysate; cited from earlier work
[7] = [Ch][DHP]/PPG400 ABS, tie line ~101, lowest phase volume ratio (0.20), 25 °C

For O=C(O)c1cc(O)c(O)c(O)c1 [GA, gallic acid], the “recovery efficiency (RE) toward the IL-rich phase” value ([1]; [Ch][DHP]-based ABS, 20 wt% IL + 50 wt% PPG400, TLL 101.43, volume ratio 0.50, 25 °C) was 92.31 ± 2.31% and 90%, the “increase in RE by increasing the TLL” value ([1]; [Ch][DHP]/PPG400 ABS) was roughly 2% and the “recovery efficiency (RE) toward the IL-rich phase” value [1, 7] was 88.7 ± 3.91%. The “recovery efficiency from grape stem extract towards the [Ch][DHP] phase” value [2] was 78.64%, the “recovery efficiency from grape stem extract towards the [Ch][DHP] phase” value ([2]; listed as gallic acid) was 78% and the solubility at 12 h ([3]; [Ch][DHP]/water 50:50, aqueous with cosolvent or surfactant or cyclodextrin, around 50 wt% [Ch][DHP] in water, 25 °C, read-out: maximal solubility in the [Ch][DHP]-rich phase) was 140 mg/mL (≈ 822 mM). For the same compound, the solubility in water ([4]; no reference and method not given) was 14.38 mg/mL (≈ 84.5 mM), the degradation ([5]; at 100 °C) was 30% and the “temperature from which degradation begins” value [5] was 60 °C.
With O=c1c(O)c(-c2ccc(O)c(O)c2)oc2cc(O)cc(O)c12 [QC, quercetin] the “selectivity SGA/QC (DGA/DQC)” value ([1]; [Ch][DHP]-based ABS, 25 °C) was greater than 1000, the “increase in RE by increasing the TLL” value ([1]; [Ch][DHP]/PPG400 ABS) was roughly 9% and the “recovery efficiency (RE) toward the PPG-rich phase” value [1, 7] was 55.70 ± 2.13%.
In the case of Oc1ccc(/C=C/c2cc(O)cc(O)c2)cc1 [RSV, trans-resveratrol], the “increase in RE by increasing the TLL” value ([1]; [Ch][DHP]/PPG400 ABS) is given as “circa 7%”, the solubility at 12 h ([3]; PPG400/water 80:20 (v/v), aqueous with cosolvent or surfactant or cyclodextrin, PPG400/water 80:20, 25 °C, not the maximum solubility, read-out: solubility in PPG/water system matching the PPG phase) is given as no less than 100 mg/mL and the “solubility in pure water” value [4] is given as 0.039 mg/mL (≈ 0.171 mM).
For COc1cc(/C=C/C(=O)O)ccc1O [ferulic acid], the “yield in the surfactant-rich phase” value [6] is given as “over 90%”.
For O=C(O)/C=C/c1ccc(O)cc1 [p-coumaric acid], the “yield in the surfactant-rich phase” value [6] is listed as “over 90%”.
